From the OPERA property sets (Mansouri et al. 2018)
Values after ≈ are worked out from the molar mass of the structure shown.

Details: 20 °C

Which solubility does the source give for `C[C@H]1C[C@@H](OC(=O)c2ccccc2)CC(C)(C)N1` here?
Its solubility is 12 mM (≈ 2960 µg/mL).

For `CCCOC(C)=O`, which solubility is on record?
Its solubility is 185 mM (≈ 18900 µg/mL).

With `CCOC(=O)CCCCC(=O)OCC` as the molecule, how does the solubility read?
Its solubility is 20.9 mM (≈ 4230 µg/mL).

With `CC(=O)OC(C)C` as the molecule, how does the solubility read?
Its solubility is 303 mM (≈ 30900 µg/mL).

With `CC(Cl)C(Cl)(Cl)C(O)O` (stereo not drawn) as the molecule, how does the solubility read?
Its solubility is 136 mM (≈ 26300 µg/mL).

With `COC(C)=O` as the molecule, how does the solubility read?
The solubility was 3280 mM (≈ 243000 µg/mL).

Which solubility does the source give for `F[P-](F)(F)(F)(F)F.N#[N+]c1ccccc1` here?
Its solubility is 36 mM.

Same assay, conditions: 25 °C

With `COc1ccc(C=CC(=O)O)cc1` as the molecule, how does the solubility read?
The solubility was 5.15 mM (≈ 918 µg/mL).

With `CCCCCCCCC(C(=O)O)C(=O)O` as the molecule, how does the solubility read?
The solubility was 1.2 mM (≈ 260 µg/mL).

Which solubility does the source give for `O=C(O)C=Cc1cccc(Br)c1` here?
Its solubility is 2.31 mM (≈ 525 µg/mL).

Which solubility does the source give for `O=C(O)c1ccccc1Br` here?
Its solubility is 9.23 mM (≈ 1860 µg/mL).

With `CC(=O)Nc1ccc([N+](=O)[O-])cc1` as the molecule, how does the solubility read?
Its solubility is 12.2 mM (≈ 2200 µg/mL).

Which solubility does the source give for `O=C1c2ccccc2C(=O)c2cc(O)ccc21` here?
The solubility was 0.00491 mM (≈ 1.1 µg/mL).

With `Cc1cccc(S(N)(=O)=O)c1` as the molecule, how does the solubility read?
Its solubility is 45.6 mM (≈ 7810 µg/mL).

Which solubility does the source give for `CC(C)c1ccc(C(=O)O)cc1` here?
The solubility was 0.92 mM (≈ 151 µg/mL).

For `O=C(O)c1ccc(I)cc1`, which solubility is on record?
Its solubility is 0.109 mM (≈ 27 µg/mL).

With `O=C(O)/C=C/c1ccc2c(c1)OCO2` as the molecule, how does the solubility read?
Its solubility is 0.141 mM (≈ 27 µg/mL).

For `O=C1c2ccc(O)cc2C(=O)c2ccc(O)cc21`, which solubility is on record?
The solubility was 0.00129 mM (≈ 0.31 µg/mL).
